Test results reported in patent US9358236B2, “Combinations of therapeutic agents for use in the treatment of neurodegenerative diseases” (Novartis AG, priority 2011, dated 2016).
Entries after “also recorded” stand apart in the source; their conditions may differ.

Experiments:
[1] = test system: DARPP-32; experiment: Striatal degeneration: DARPP-32 intensity in R6/2 brain slices; format: cell-based, mouse; details: R6/2 slices at DIV21
Experimental: (§1) Transgenic mice expressing human Huntingtin Exon-1Q200 (R6/2 mouse model described in Davies et al., 1997) were housed in a temperature-controlled room and maintained on a 12 hr light/dark cycle. Food and water were available ad libitum and experiments were carried out in accordance with the local authorization guidelines for the care and use of laboratory animals. Slice cultures were established according to the procedure described by Stoppini and colleagues (Stoppini et al., 1991 and Gogolla et al., 2006) and a particular cutting angle was utilized to produce brain slices with a preserved cortico-striatal pathway. Finally, slices were selected, placed on Millicel (Millipore, PICM03050) and cultured in 6-well dishes at 35° C. and 5% CO2 in the presence of 1 ml of culture medium.
(§2) Slices were treated with different mTOR inhibitors from DIV14 to DIV21. The culture medium was exchanged every second day, and drugs were added in the fresh culture medium. […]
(§3) High resolution images were acquired on an upright Zeiss LSM700 confocal microscope, using a Plan-Neofluar 40×/1.3 oil immersion objective. For the quantification of the PolyQ density and DARPP-32/NeuF signal intensity, at least three confocal 3D stacks/slice were acquired in striatum for each experiment (five slices per condition), and analyzed using Imaris 4.2 (Bitplane AG) and Image J softwares.
(§4) All data are expressed as mean±SEM. […]

[2] = biological target: mTOR (Homo sapiens, UniProt P42345); details: low concentration; Serra et al., 2008; cited from earlier work
[3] = test system: PI3K/mTOR; details: relatively higher concentrations; Serra et al., 2008; cited from earlier work
[4] = test system: LC3-II/I conversion; experiment: Autophagy induction (LC3-II/I conversion) by Western blot in R6/2 brain slices; format: cell-based; details: R6/2 slices treated DIV14 to DIV21, analysed at DIV21
Experimental: as §1
Slices were treated with different mTOR inhibitors from DIV14 to DIV21. The culture medium was exchanged every second day, and drugs were added in the fresh culture medium. We used this protocol to evaluate the action of the following mTOR inhibitors: BEZ235 (50 and 300 nM in DMSO), RAD001 (250 nM in DMSO), CCG168 (300 nM in DMSO), RAD001+BEZ235 (250 10, 250 30 and 250 50 nM in DMSO) and RAD001'CCG168 (250 and 50 nM in DMSO).
Slices were washed in PBS and lysed in 1% Triton X-100/PBS containing Complete Mini (Roche, #04693124001) and PhosSTOP (Roche, #04906837001). Lysates were ultrasonicated and analysed by Western blotting for B-actin (Sigma, #A5441), pS6 Ser 240/244 (Cell Signalling, #2215), and LC3B (Cell Signalling, #2775). Immunoblots were developed with ECL detection reagent (Amersham Biosciences).

[5] = test system: p-S6 S240/244; experiment: mTORC1 activity (p-S6 S240/244) by Western blot in R6/2 brain slices; format: cell-based, mouse; details: R6/2 slices treated DIV14 to DIV21, analysed at DIV21
[6] = test system: polyQ inclusions; experiment: polyQ density by immunohistochemistry in R6/2 brain slices; format: cell-based, mouse; details: R6/2 slices at DIV21, vs control R6/2
Experimental: as §1, §2, §3, §4

[7] = test system: neurofilament; experiment: Striatal degeneration: neurofilament intensity in R6/2 brain slices; format: cell-based, mouse; details: R6/2 slices at DIV21
Experimental: as §1, §2, §3, §4

[8] = single low-concentration (50 nM)
[9] = single low-concentration (250 nM)

Cn1c(=O)n(-c2ccc(C(C)(C)C#N)cc2)c2c3cc(-c4cnc5ccccc5c4)ccc3ncc21 [BEZ235, 2-methyl-2-[4-(3-methyl-2-oxo-8-quinolin-3-yl-2,3-dihydro-imidazo[4,5-c]quinolin-1-yl)-phenyl]-propionitrile]
preservation of DARPP-32 level [1, 8]: ineffective
concentration at which mTOR inhibition predominates [2]: less than 100 nmol/L
concentration giving dual PI3K/mTOR inhibition [3]: approximately 500 nmol/L
LC3-II/I conversion (autophagy induction) ([4]; 50 nM): no effect
LC3-II/I conversion (autophagy induction) ([4]; 300 nM): induced autophagy; also recorded: reached similar efficacy
p-S6 S240/244 level ([5]; 50 nM): did not reduce
polyQ density ([6]; 50 nM): no effect
preservation of neurofilament level [7, 8]: ineffective

CO[C@H]1C[C@@H]2CC[C@@H](C)[C@@](O)(O2)C(=O)C(=O)N2CCCC[C@H]2C(=O)O[C@H]([C@H](C)C[C@@H]2CC[C@@H](OCCO)[C@H](OC)C2)CC(=O)[C@H](C)/C=C(\C)[C@@H](O)[C@@H](OC)C(=O)[C@H](C)C[C@H](C)/C=C/C=C/C=C/1C [RAD001, (1R,9S,12S,15R,16E,18R,19R,21R,23S,24E,26E,28E,30S,32S,35R)-1,18-dihydroxy-12-{(1R)-2-[(1S,3R,4R)-4-(2-hydroxyethoxy)-3-methoxycyclohexyl]-1-methylethyl}-19,30-dimethoxy-15,17,21,23,29,35-hexamethyl-11,36-dioxa-4-aza-tricyclo[30.3.1.0^4,9]hexatriaconta-16,24,26,28-tetraene-2,3,10,14,20-pentaone]
preservation of DARPP-32 level [1, 9]: ineffective
LC3-II/I conversion (autophagy induction) ([4]; 250 nM): no effect
p-S6 S240/244 level ([5]; 250 nM): reduced
polyQ density ([6]; 250 nM): no effect
preservation of neurofilament level [7, 9]: ineffective

COc1ccc(-c2ccc3c(N4CCOC[C@@H]4C)nc(N4CCOC[C@@H]4C)nc3n2)cc1CO [CCG168, {5-[2,4-bis-((S)-3-methyl-morpholin-4-yl)-pyrido[2,3d]pyrimidin-7-yl]-2-methoxy-phenyl}-methanol]
LC3-II/I conversion (autophagy induction) ([4]; 300 nM): induced autophagy; also recorded: reached similar efficacy
